Reference: patent US8609347B2, “Biomarkers for prenatal diagnosis of congenital cytomegalovirus” (priority 2007, dated 2013)

Tests used:
Assay type in all cases: cell-based, human
CEACAM1 = CEACAM1 expression by flow cytometry in HUVEC; details: treatment with antioxidants; ratios of mean fluorescence intensity to control cells
From the text: FIG. 6A-D: CEACAM protein increases in CMV-infected HUVEC. (A) (Left panel) Flow cytometric analysis of CEACAM1 surface expression. Typical histograms from control and infected human umbilical vein endothelial cells (HUVEC) are shown. Shaded areas represent expression of specific proteins, and lines represent isotype control. (Middle panel) Graphs represent mean fluorescence intensity (mean±SE). Statistically significant differences are indicated (*p<0.05, **p<0.001). (Right panel) VR1814-infected HUVEC increase intracellular CEACAM1 protein. Permeabilized cells were analyzed by flow cytometry. Shaded areas represent expression of specific proteins; lines represent isotype control. (B) CEACAM1 levels in conditioned medium measured by ELISA. Polyclonal and biotinylated CEACAM1-specific IgG (R&D Systems) were used for coating and detection, respectively. CEACAM1 was quantified with peroxidase-conjugated streptavidin. CEACAM1 concentration increased in conditioned medium from infected HUVEC (1 PFU/cell). Graphs represent mean value±SE (n=4). Statistically significant differences are indicated (*p<0.05). (C) Infected HUVEC and controls were immunostained for CEACAM1 and CMV gB. Please Note: cells without viral proteins express CEACAM1. […] Ratios of the mean fluorescence intensity were obtained with control cells.

integrin β6 = experiment: Surface expression of integrin αvβ6 by flow cytometry in CMV-infected HUVECs; details: 7 days, SB431542 0.1 to 1 μmol/L, Foscarnet 400 μmol/L, phosphonoacetic acid 100 μg/ml
Procedure: FIG. 20: Induction of integrin αvβ6 expression requires TGF-β signaling and viral DNA replication A: Infected HUVECs were cultured with or without chicken anti-TGF-β polyclonal antibody (20 μg/ml), chicken IgY isotype control antibody (control Ab, 20 μg/ml), the ALK5 kinase inhibitor SB431542 (0.5 μmol/L), or the vehicle DMSO for 7 days, and surface expression of integrin αvβ6 was analyzed by flow cytometric analysis. Typical histograms are shown. Shaded areas represent expression of specific proteins. Lines represent isotype control. Experiments were repeated at least two times. B: Surface expression of integrin αvβ6 was analyzed by flow cytometric analysis at 7 days after infection with or without viral DNA polymerase inhibitors, Foscarnet, and phosphonoacetic acid (PAA). Typical histograms are shown. Shaded areas represent expression of specific proteins. Lines represent isotype control. Experiments were repeated six times. C: Active TGF-β was not produced by infected HUVECs in the presence of viral DNA polymerase inhibitors. Equal numbers of TMLC TGF-β reporter cells and control (cont.) or infected HUVECs were cultured for 16 to 24 hours at 7 days after infection. Relative luciferase activity in cell lysates was defined as the measured activity divided by TMLC baseline activity. Representative data (mean±SE) are from four experiments done in triplicate.
The present example assesses how integrin β6 is induced on CMV infection in HUVECs. It has been reported that TGF-β1 induces de novo synthesis of integrin β6 in normal human keratinocytes (Zambruno et al., J Cell Biol, 129:853-865 (1995)) and strongly up-regulates its expression in primary cultures of human airway epithelial cells (Wang et al., Am J Respir Cell Mol Biol, 15:664-672 (1996)). […] HUVECs were cultured with the filtered conditioned medium for 8 days, and expression of integrin β6 was analyzed. […] It was then determined whether viral late gene expression is required for the up-regulation of integrin β6 in infected cells because the expression was observed only at late times after infection. […]

[1] = system: TGF-β1 activation in CMV-infected HUVECs; experiment: TGF-β bioassay: TMLC TGF-β reporter cells co-cultured with CMV-infected HUVECs, luciferase activity; details: 7 days after infection; Foscarnet 400 μmol/L or phosphonoacetic acid 100 μg/ml
From the text: FIG. 18: Integrin αvβ6-dependent TGF-β1 activation in CMV-infected HUVECs. A: TGF-β1 production by infected HUVECs. Conditioned medium was collected from control (open circles) and infected (filled circles) HUVECs at 1 to 9 days, and TGF-β1 was quantified by enzyme-linked immunosorbent assay. Results are the mean (±SE) of three experiments done in duplicate. Asterisks indicate the amount of TGF-β1 in infected HUVECs as compared with uninfected controls (*P<0.05, **P<0.01). B: Surface expression of TGF-β1 in HUVECs was analyzed by flow cytometry at 3, 7, and 10 days after infection and controls (cont). Typical histograms are shown. Shaded areas represent expression of specific proteins. Lines represent isotype control. Experiments were repeated at least three times. C: Total TGF-β1 was analyzed by flow cytometry using permeabilized cells at 3, 7, and 10 days after infection (inf.) and controls (cont). Left: Typical histograms at 10 days are shown. Shaded areas represent expression of specific proteins. Lines represent isotype control. Right: Results are the mean fluorescence intensity (±SE) of three experiments. Asterisks indicate expression in infected HUVECs as compared with uninfected controls (*P<0.05). D: TGF-β bioassay of active TGF-β produced by infected HUVECs. […] Relative luciferase activity in cell lysates was defined as the measured activity divided by TMLC baseline activity. […]

fibronectin = experiment: Surface expression of fibronectin in CMV-infected HUVECs; details: late times after infection
From the text: TGF-β1 is a potent fibrotic factor responsible for the synthesis of ECM, and profibrotic TGF-β1 responses are induced primarily via ALK5/Smad3 signal transduction in normal fibroblasts (Ishida et al., J Invest Dermatol, 126:1733-1744 (2006)). TGF-β1 also potently promotes the synthesis and deposition of ECM in endothelial cells (Pepper, M. S., Cytokine Growth Factor Rev, 8:21-43 (1997)). […] Therefore, it was investigated in the present example whether CMV-activated TGF-β1 could increase ECM production and whether blocking TGF-β1 activation could prevent the effect. […] To evaluate the effect of inhibition of activation of TGF-β1 on CMV-induced profibrotic response, infected cells were treated with anti-TGF-β (1D11) and anti-αvβ6 (3G9) antibodies for 7 days. […] In addition, surface expression of fibronectin was increased at late times after infection, and was reduced by the ALK5 kinase inhibitor.

Smad3 phosphorylation = Smad3 phosphorylation by immunoblot in CMV-infected HUVECs; details: 8-day infected HUVECs; 1D11 40 μg/ml, 3G9 80 μg/ml, SB431542 2.5 μmol/L
Procedure: FIG. 19: CMV-infected HUVECs induce Smad3 phosphorylation. Cell lysates from control (cont.) or infected (inf.) HUVECs at 3, 7, and 10 days after infection were fractionated by 10% SDS-PAGE and blotted on nitrocellulose. Phosphorylation of Smad3 (pSmad3) and Smad1/5 (pSmad1/5) was analyzed by immunoblotting using phospho-specific Smad3 and Smad1/5/8 (pSmad1/5) antibodies. Equal loading of the gels was confirmed using Smad2/3, Smad1, and Smad5 protein levels. B: Effects of anti-TGF-β antibody, anti-αvβ6 antibody (3G9), and ALK5 kinase inhibitor on Smad3 phosphorylation. […]
Activated TGF-β1 can bind the type I receptors ALK1 and ALK5, which then phosphorylate the transcriptional activators Smad1/5 and Smad2/3, respectively (ten Dijke, P. and Hill, C. S., Trends Biochem Sci, 29:265-273 (2004)). To determine which of these TGF-β1 signaling pathways is activated in CMV-infected HUVECs, Smad1/5 and Smad3 phosphorylation was analyzed by immunoblotting with antibodies specific to Smads and their phosphorylated forms (FIG. 19A). Smad3 phosphorylation was strongly detected in 7- and 10-day-infected cells. […] Phosphorylated Smad1/5 was also weakly detected in the control. […]

type IV collagen = experiment: Type IV collagen expression (flow cytometry, immunoblot) in CMV-infected HUVECs; details: infected HUVECs treated for 7 days
Procedure: FIG. 22: Increased type IV collagen synthesis by CMV infection was blocked by anti-TGF-β and anti-αvβ6 neutralizing antibodies. A: Surface expression of type IV collagen was analyzed by flow cytometric analysis at 10 days after infection. Typical histograms from control (cont.) and infected (inf.) HUVECs are shown. Shaded areas represent expression of specific proteins. Lines represent isotype control. B: The results represent the mean fluorescence intensity of type IV collagen (mean±SE) from three to seven experiments. Asterisks indicate surface expression in infected HUVECs as compared with uninfected controls (*P<0.01). C: Cell lysates from control (cont.) or infected (inf.) HUVECs at 3, 7, and 10 days after infection were fractionated by 8% SDS-PAGE and blotted on nitrocellulose. Filters were incubated with anti-type IV collagen (Col IV) and anti-actin (loading control) antibodies. D: Surface expression of type IV collagen was analyzed by flow cytometric analysis at 7 days without antibody (untreated) or with anti-TGF-β neutralizing antibody (1D11), function-blocking anti-αvβ6 antibody (3G9), or mouse IgG1 isotype control antibody (control Ab). Relative surface expression as expressed by mean fluorescence intensity was normalized for control HUVECs in the same experiment. Results are the mean (±SE) from three experiments. […]

| Structure (SMILES) | CEACAM1 expression (CEACAM1) | induction of integrin β6 (integrin β6) | induction of TMLC luciferase activity (active TGF-β) [1] | also measured |
| --- | --- | --- | --- | --- |
| O[C@H](CS)[C@H](O)CS (racemic) [DTT, dithiothreitol] | reduce CEACAM1 expression | – | – | – |
| C[S+](C)[O-] [DMSO, dimethyl sulfoxide] | reduce CEACAM1 expression | – | – | – |
| O=C(O)P(=O)(O)O [Foscarnet] | – | blocked induction of integrin β6 | strongly suppressed | – |
| NC(=O)c1ccc(-c2nc(-c3ccc4c(c3)OCO4)c(-c3ccccn3)[nH]2)cc1 [SB431542] | – | nearly abolish it at high concentrations | – | surface expression of fibronectin (fibronectin): reduced; Smad3 phosphorylation (Smad3 phosphorylation): prevented Smad3 phosphorylation; surface expression of type IV collagen (type IV collagen): inhibitory effect |
| O=C(O)CP(=O)(O)O [phosphonoacetic acid] | – | blocked induction of integrin β6 | strongly suppressed | – |
| OCCS [β-mercaptoethanol] | reduce CEACAM1 expression | – | – | – |
